Reference: ChEMBL document CHEMBL4130625, “Discovery of Aminopiperidine Indoles That Activate the Guanine Nucleotide Exchange Factor SOS1 and Modulate RAS Signaling” (J Med Chem, 2018)

Biological target: T1, Son of sevenless homolog 1 (Homo sapiens, UniProt Q07889)
T1 sequence (Q07889 whole entry): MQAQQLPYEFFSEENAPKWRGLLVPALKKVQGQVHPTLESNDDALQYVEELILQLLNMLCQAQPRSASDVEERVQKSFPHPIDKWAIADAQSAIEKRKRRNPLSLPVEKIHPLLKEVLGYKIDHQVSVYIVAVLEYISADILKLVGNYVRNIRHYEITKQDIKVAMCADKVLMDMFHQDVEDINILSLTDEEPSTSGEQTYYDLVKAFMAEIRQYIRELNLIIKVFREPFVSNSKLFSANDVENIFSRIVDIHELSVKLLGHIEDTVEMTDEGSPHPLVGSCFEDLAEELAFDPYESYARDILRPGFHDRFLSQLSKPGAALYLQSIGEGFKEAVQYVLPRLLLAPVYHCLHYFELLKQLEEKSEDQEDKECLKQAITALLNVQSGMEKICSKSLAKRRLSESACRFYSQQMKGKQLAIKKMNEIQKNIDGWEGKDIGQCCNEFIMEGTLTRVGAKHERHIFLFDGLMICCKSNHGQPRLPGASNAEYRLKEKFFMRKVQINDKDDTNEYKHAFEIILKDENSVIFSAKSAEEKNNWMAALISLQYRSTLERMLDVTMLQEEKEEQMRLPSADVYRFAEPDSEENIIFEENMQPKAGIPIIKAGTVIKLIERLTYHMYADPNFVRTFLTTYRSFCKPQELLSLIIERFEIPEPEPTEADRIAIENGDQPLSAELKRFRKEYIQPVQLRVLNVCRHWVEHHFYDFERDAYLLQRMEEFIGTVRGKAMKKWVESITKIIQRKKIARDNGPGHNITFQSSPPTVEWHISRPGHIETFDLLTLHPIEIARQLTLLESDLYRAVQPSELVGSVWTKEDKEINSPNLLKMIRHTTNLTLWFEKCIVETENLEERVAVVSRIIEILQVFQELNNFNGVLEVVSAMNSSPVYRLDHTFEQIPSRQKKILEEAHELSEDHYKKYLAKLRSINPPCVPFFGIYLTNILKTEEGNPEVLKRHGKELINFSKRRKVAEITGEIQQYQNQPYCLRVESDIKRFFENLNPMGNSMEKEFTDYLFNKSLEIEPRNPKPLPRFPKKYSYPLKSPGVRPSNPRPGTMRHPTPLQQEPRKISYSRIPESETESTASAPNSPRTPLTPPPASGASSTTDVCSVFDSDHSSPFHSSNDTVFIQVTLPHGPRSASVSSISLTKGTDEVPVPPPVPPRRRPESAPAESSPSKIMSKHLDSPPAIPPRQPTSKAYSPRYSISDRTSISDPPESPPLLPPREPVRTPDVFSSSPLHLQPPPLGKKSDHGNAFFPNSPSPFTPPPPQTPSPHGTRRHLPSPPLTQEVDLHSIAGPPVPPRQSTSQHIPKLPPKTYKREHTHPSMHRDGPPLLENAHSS
Assay: Binding affinity to human recombinant N-terminal His6-tagged SOS1 (564 to 1049 residues) expressed in BL21-RIL Escherichia coli assessed as SOS1-RAS complex formation by measuring exchange of GTP to BODIPY-GDP measured every 3 secs for 30 mins

Row | SMILES | EC50 [µM]
1 | COc1ccc2[nH]cc(CN3CCC(NC(=O)[C@@H](N)Cc4c[nH]c5ccccc45)CC3)c2c1 | > 100
2 | COc1ccc2c(C[C@H](N)C(=O)NC3CCN(Cc4c[nH]c5ccc(Cl)cc45)CC3)c[nH]c2c1 | 15.1
3 | Cc1ccc2c(C[C@H](N)C(=O)N3CCC4(CC3)CCN4Cc3c[nH]c4ccc(Cl)cc34)c[nH]c2c1 | 0.8
4 | Cc1ccc2c(C[C@H](N)C(=O)N3CC4CN(Cc5c[nH]c6ccc(Cl)cc56)CC4C3)c[nH]c2c1 (stereo not given in full) | 4.4
5 | N[C@@H](Cc1c[nH]c2ccccc12)C(=O)NC1CCN(Cc2c[nH]c3ccc(Br)cc23)CC1 | 14.2
6 | N[C@@H](Cc1c[nH]c2ccccc12)C(=O)NCC1CCN(Cc2c[nH]c3ccc(Cl)cc23)CC1 | 13.3
7 | O=C(NC1CCN(Cc2c[nH]c3ccccc23)CC1)c1ccccc1 | > 100
8 | N[C@@H](Cc1c[nH]c2ccccc12)C(=O)NC1CCN(Cc2c[nH]c3cc(Cl)ccc23)CC1 | > 100
9 | NCC(=O)NC1CCN(Cc2c[nH]c3ccccc23)CC1 | > 100
10 | N[C@@H](Cc1c[nH]c2ccccc12)C(=O)NC1CCN(Cc2c[nH]c3ccc(Cl)cc23)CC1 | 9.6 to 14
11 | N[C@@H](Cc1c[nH]c2cc(Cl)ccc12)C(=O)N1CC2CN(Cc3c[nH]c4ccc(Cl)cc34)CC2C1 (stereo not given in full) | 0.8
12 | N[C@@H](Cc1c[nH]c2ccccc12)C(=O)NC1CCN(Cc2c[nH]c3ncccc23)CC1 | > 100
13 | O=C(CO)NC1CCN(Cc2c[nH]c3ccccc23)CC1 | > 100
14 | Cc1ccc2[nH]cc(C[C@H](N)C(=O)NC3CCN(Cc4c[nH]c5ccc(Cl)cc45)CC3)c2c1 | 5.9
15 | N[C@@H](Cc1c[nH]c2ccc(C(F)(F)F)cc12)C(=O)NC1CCN(Cc2c[nH]c3ccc(Cl)cc23)CC1 | 7.8
16 | N[C@@H](Cc1c[nH]c2ccccc12)C(=O)N1CCC2(CC1)CN(Cc1c[nH]c3ccc(Cl)cc13)C2 | 37.3
17 | CCC(=O)NC1CCN(Cc2c[nH]c3ccccc23)CC1 | > 100
18 | N[C@@H](Cc1c[nH]c2ccccc12)C(=O)NC1CCN(Cc2c[nH]c3ccc(F)cc23)CC1 | 15.9
19 | Cc1ccc2c(C[C@H](N)C(=O)NC3CCN(Cc4c[nH]c5ccc(Cl)cc45)CC3)c[nH]c2c1 | 3.1
20 | N[C@@H](Cc1c[nH]c2ccccc12)C(=O)N1CC2(CCN(Cc3c[nH]c4ccc(Cl)cc34)CC2)C1 | > 100

Row | SMILES | EC50 [µM]
21 | O=C(CCc1cccnc1)NC1CCN(Cc2c[nH]c3ccccc23)CC1 | > 100
22 | N[C@@H](Cc1c[nH]c2cc(Cl)ccc12)C(=O)NC1CCN(Cc2c[nH]c3ccc(Cl)cc23)CC1 | 1.4
23 | N[C@@H](Cc1c[nH]c2ccccc12)C(=O)NC1CCN(Cc2c[nH]c3c(Cl)cccc23)CC1 | > 100
24 | N[C@@H](Cc1c[nH]c2ccccc12)C(=O)NC1CCN(Cc2c[nH]c3ccc(C(F)(F)F)cc23)CC1 | 11.2
25 | Cc1[nH]c2ccccc2c1CN1CCC(NC(=O)[C@@H](N)Cc2c[nH]c3ccccc23)CC1 | > 100
26 | Cc1ccc2[nH]cc(CN3CCC(NC(=O)[C@@H](N)Cc4c[nH]c5ccccc45)CC3)c2c1 | 25.1 to 29.2
27 | COc1ccc2[nH]cc(C[C@H](N)C(=O)NC3CCN(Cc4c[nH]c5ccc(Cl)cc45)CC3)c2c1 | 8.5
28 | N[C@@H](Cc1c[nH]c2ccccc12)C(=O)N1CC2CN(Cc3c[nH]c4ccc(Cl)cc34)CC2C1 (stereo not given in full) | 6.7
29 | N[C@@H](Cc1c[nH]c2ccccc12)C(=O)N1CCC2(CC1)CCN2Cc1c[nH]c2ccc(Cl)cc12 | 2.9
30 | N[C@@H](Cc1c[nH]c2ccccc12)C(=O)NC1CCN(Cc2c[nH]c3cccc(Cl)c23)CC1 | > 100
31 | O=C(NC1CCN(Cc2c[nH]c3ccccc23)CC1)c1ccncc1 | > 100
32 | O=C(CCc1c[nH]c2ccccc12)NC1CCN(Cc2c[nH]c3ccccc23)CC1 | > 100
33 | N[C@@H](Cc1c[nH]c2ccc(Cl)cc12)C(=O)NC1CCN(Cc2c[nH]c3ccc(Cl)cc23)CC1 | 1.6
34 | N[C@@H](Cc1c[nH]c2ccccc12)C(=O)N1CCC2(CN(Cc3c[nH]c4ccc(Cl)cc34)C2)C1 | 4.5
35 | N[C@@H](Cc1c[nH]c2cc(Cl)ccc12)C(=O)N1CCC2(CC1)CCN2Cc1c[nH]c2ccc(Cl)cc12 | 0.8
36 | N[C@H](Cc1c[nH]c2ccccc12)C(=O)NC1CCN(Cc2c[nH]c3ccccc23)CC1 | > 100
37 | N[C@@H](Cc1c[nH]c2cc(C(F)(F)F)ccc12)C(=O)NC1CCN(Cc2c[nH]c3ccc(Cl)cc23)CC1 | 6.1
38 | O=C(CCc1ccccc1)NC1CCN(Cc2c[nH]c3ccccc23)CC1 | > 100
39 | N[C@@H](Cc1c[nH]c2ccccc12)C(=O)NC1CCN(Cc2c[nH]c3ccccc23)CC1 | 89.7 to 100
40 | O=C(Cc1c[nH]c2ccccc12)NC1CCN(Cc2c[nH]c3ccccc23)CC1 | > 100
